Source: US20250197831A1, “LACTASE SOLUTION” (GODO SHUSEI CO., LTD., priority 2021, published 2025)
Structures can show the parent of a compound that is named as a salt.

What was measured:
[1] = Filter permeability test of the lactase solution (slope −a of flux vs permeate); assay type: physicochemical; conditions: for Slope (−a) Before Shaking: immediately after preparation; for Slope (−a) After Shaking: shaken at 20° C., 30 mm, 100 spm, 1 hour
Protocol: The detailed conditions in this example of the filter permeability test will be described in detail below.
The following operation was performed in an environment of 5 to 15° C. • 1. A measuring apparatus, a lactase solution sample, and distilled water were cooled to the test environment temperature. • 2. The lactase solution sample was diluted with distilled water or concentrated by ultrafiltration to adjust the lactase activity to 16,000 to 17,500 U/g and mixed well. • 3. In the test, one in which a 25 nun stainless steel filter holder (manufactured by PALL Corporation, product number 1209 (effective membrane area: 3.7 cm^2)) is connected to a stainless steel holder with a 47 mm tank (Advantec Toyo Kaisha, Ltd., product name “KST-47”) was used as an apparatus. A sample permeating portion in the filter holder is configured to include an O-ring, a membrane, a support screen, and an underdrain disc from the measurement sample inlet side (in the test of the present invention, the filter of the stainless steel holder with the tank and the parts of the filter bolding portion (the support screen and the support thereof) were not attached). As the membrane, DURAPORE (product name) (pore diameter: 0.22 μm, φ25 mm, made of hydrophilic PVDF) manufactured by Merck Millipore was used, and as the support screen, Type 316 stainless steel attached to the filter holder was used. In addition, in order to adjust the permeation rate, four circular label stickers (manufactured by A-One Co., Ltd., product name A-one color label 07010) having a diameter of 0.9 cm were stuck symmetrically to an upper portion of the support screen (measurement sample inlet side) (effective membrane area: 1.26 cm^2), and a membrane filter (pore diameter: 0.22 μm) was set. The membrane was rinsed with a 50% glycerin aqueous solution and attached to the stainless steel filter holder. • 4. The lactase solution sample (sample) diluted in 2. was charged into the stainless steel holder with the tank. • 5. A pressure of 0.2 MPa was applied to the stainless steel holder with the tank using an air compressor (manufactured by Yaezaki Kuatsu Co., Ltd., product name “KAPSEL-CON YC-3R” or “PC4-15HLM”), and the enzyme solution was pumped. The permeate was received in a container such as a beaker, the amount of the permeate was recorded every 10 seconds, and (1) the permeation amount (permeate (kg/m^2)) and (2) the permeation rate (flux (kg/min×m^2)) per square meter of the membrane were determined by the following method. In addition, the slope a of an approximate curve y=ax+b obtained when (1) is plotted on the x axis and (2) is plotted on the y axis was determined.
Permeate (kg/m^2)=weight (g) of product that permeated at point n/(membrane radius (mm))×membrane radius (mm)×circumference ratio)(m^2)×1000 (1)
Flux (kg/min×m^2)=(permeate at point n−permeate at point (n−1))/(permeation time (min) at point n−permeation time (min) at point (n−1)) (2) • *n indicates a measurement point. In order to record the permeation amount for every 10 seconds, for example, when the point n is for the permeation amount or permeate at the time of permeation for 10 seconds, the point (n−1) is for the permeation amount of permeate at the time of permeation for 0 seconds.
(§1) A predetermined amount of a given additive was added to GODO-YNL2LS, and the slope (−a) showing filter permeability and the residual activity of lactase activity were measured.
Each lactase solution was obtained by adding the additive shown in the table in a predetermined amount to 60,000 U/g GODO-YNL2LS. […] The lactase activity of each lactase solution after storage at 50° C. for 3 days was measured.

[2] = target: T1, lactase (Kluyveromyces lactis, UniProt P00723); assay: Residual activity of lactase activity after storage; assay type: physicochemical; conditions: for Residual Activity: storage at 50° C. for 3 days; for residual activity of lactase activity after storage (storage stability test): 0.005% and 0.01% in 60,000 U/g lactase solution, stored at 12° C. for 30 days
T1 construct: purchased GODO SHUSEI CO., LTD; GODO-YNL2LS
Protocol: In the following examples and the like, commercially available GODO-YNL2LS (manufactured by GODO SHUSEI CO., LTD.) was used as the lactase solution. […]
A diluted enzyme solution (0.5 mL) and 0.5 mL of a basic buffer (100 mM phosphate buffer (pH 6.5) containing 0.1 mM manganese chloride) are mixed, and the mixture is preheated at 37° C. for 3 minutes, and then, 1.0 mL of a 1.65 mM O-nitrophenyl-β-D-galactopyranoside (ONPG) aqueous solution is added thereto to cause a reaction at 37° C. for 1 minute. After 2.0 mL of a reaction stop solution (200 mM sodium carbonate) was added thereto, the absorbance at OD 420 nm was measured. One unit (U) is the enzyme activity that increases the OD […] by 1 from the substrate in 10 minutes.
as §1
Each lactase solution was obtained by adding the additive shown in the table in a predetermined amount to 60,000 U/g GODO-YNL2LS. Each lactase solution immediately after preparation was subjected to a filter permeability test and a lactase activity measurement by the above-mentioned methods. […]
In a container, 0.03 g of a saturated fatty acid and 1 mL of a 1 M aqueous sodium hydroxide solution were mixed, and 4 mL of distilled water was added thereto. The mixture was subjected to a saponification treatment in boiling water at 100° C. for 5 minutes, then left to cool to room temperature, and the reaction product was added to 294 g of a total amount of the lactase solution (GODO-YNL2LS) (addition amount: 0.01%). The filtrate obtained by filtering this was subjected to a filter permeability test and a residual activity of lactase activity.
In this example, 108 g of 99% glycerin was mixed with 0.03 g of the unsaturated fatty acid in a container. The mixture was added to 192 g of a total amount of the lactase solution (GODO-YNL2LS) (addition amount: 0.01%). The filtrate obtained by filtering this was subjected to a filter permeability test and a residual activity of lactase activity.

T1 sequence (P00723 whole entry): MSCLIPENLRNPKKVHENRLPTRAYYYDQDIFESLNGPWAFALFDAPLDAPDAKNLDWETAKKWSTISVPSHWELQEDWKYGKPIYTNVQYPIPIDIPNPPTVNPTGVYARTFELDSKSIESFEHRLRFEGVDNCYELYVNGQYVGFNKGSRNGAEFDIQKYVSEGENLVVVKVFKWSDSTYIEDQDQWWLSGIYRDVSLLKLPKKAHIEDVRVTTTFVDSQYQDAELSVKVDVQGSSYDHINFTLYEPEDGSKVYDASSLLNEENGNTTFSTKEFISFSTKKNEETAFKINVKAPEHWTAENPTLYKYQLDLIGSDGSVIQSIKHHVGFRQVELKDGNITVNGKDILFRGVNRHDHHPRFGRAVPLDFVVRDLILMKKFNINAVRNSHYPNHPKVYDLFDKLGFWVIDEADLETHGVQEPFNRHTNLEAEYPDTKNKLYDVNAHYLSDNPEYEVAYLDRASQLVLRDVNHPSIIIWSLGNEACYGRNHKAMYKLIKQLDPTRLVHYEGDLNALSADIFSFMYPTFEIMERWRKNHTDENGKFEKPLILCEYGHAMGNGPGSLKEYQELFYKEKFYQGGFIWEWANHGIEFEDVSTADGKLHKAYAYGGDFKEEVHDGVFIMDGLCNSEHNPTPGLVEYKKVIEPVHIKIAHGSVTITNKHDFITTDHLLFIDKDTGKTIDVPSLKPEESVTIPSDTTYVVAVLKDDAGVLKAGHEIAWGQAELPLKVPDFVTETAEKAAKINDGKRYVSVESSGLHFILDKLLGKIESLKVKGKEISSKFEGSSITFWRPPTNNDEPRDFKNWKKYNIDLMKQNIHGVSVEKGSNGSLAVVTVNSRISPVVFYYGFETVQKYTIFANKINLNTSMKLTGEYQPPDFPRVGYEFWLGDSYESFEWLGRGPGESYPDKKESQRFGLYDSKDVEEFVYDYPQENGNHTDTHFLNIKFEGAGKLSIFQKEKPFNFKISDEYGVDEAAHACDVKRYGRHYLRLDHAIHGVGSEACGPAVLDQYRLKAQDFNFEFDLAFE

Structure (SMILES) | Slope (−a) Before Shaking ([1]; additive 0.01 % in GODO-YNL2LS) | Residual Activity ([2]; additive 0.01 %) | Slope (−a) After Shaking ([1]; additive 0.01 %) | further results
CCCCCCCCCCCCCC(=O)[O-].[Na+] [Na Myristate] | 0.0147 | 70.7% | – | –
C[N+](C)(C)CC(=O)O [Betaine Hydrochloride] | – | – | – | Slope Before Shaking ([1]; Table 2, addition amount 0.1, immediately after preparation): 0.0291; Residual Activity ([2]; Table 2, addition amount 0.1): 66.5%
CCCCCCCC/C=C\CCCCCCCC(=O)O [Oleic Acid] | 0.0272 | 72.0% | 0.0407 | residual activity of lactase activity after storage (storage stability test) [2]: practical level
CCCCCCCCCC(=O)[O-].[Na+] [Na Decanoate] | 0.0228 | – | – | –
N[C@@H](CCC(=O)N[C@@H](CS)C(=O)NCC(=O)O)C(=O)O [Reduced Glutathione] | – | – | – | Residual Activity ([2]; Table 2, addition amount 0.02): 19.9%
CCCCCCCCCCCCCCCCCC(=O)[O-].[Na+] [Na Stearate] | 0.0273 | 61.9% | deteriorated | –
N[C@@H](CS)C(=O)O [Cysteine] | – | – | – | Residual Activity ([2]; Table 2, addition amount 0.02): 1.1%
CCCCC/C=C\C/C=C\CCCCCCCC(=O)O [Linoleic Acid] | 0.0265 | 61.1% | 0.0253 | residual activity of lactase activity after storage (storage stability test) [2]: practical level
CCCCCCCCCCCCCCCC(=O)[O-].[Na+] [Na Palmitate] | 0.0200 | 61.5% | deteriorated | –
CCCCCCCC/C=C\CCCCCCCC(=O)[O-].[Na+] [Na Oleate] | – | 71.4% | – | Slope (−a) Before Shaking ([1]; additive 0.005 % in GODO-YNL2LS): 0.0243; Slope (−a) After Shaking ([1]; additive 0.005 %): 0.0216; Slope (−a) Before Shaking ([1]; additive 0.1 % in GODO-YNL2LS): 0.0542; Slope (−a) After Shaking ([1]; additive 0.1 %): 0.0405; Residual Activity ([2]; additive 0.005 %): 64.3%
CCCCCCCCCCCC(=O)[O-].[Na+] [Na Laurate] | 0.0176 | – | 0.0590 | –
